Experimental data reported in ChEMBL document CHEMBL4138079, “New cycloartane type-triterpenoids from the areal parts of Caragana sukiensis and their biological activities” (Eur J Med Chem, 2017).

Legend:
HeLa = assay: Cytotoxicity against human HeLa cells assessed as reduction in cell viability after 48 hrs by MTT assay; assay type: functional, cell-based
A549 = assay: Cytotoxicity against human A549 cells assessed as reduction in cell viability after 48 hrs by MTT assay; assay type: functional, cell-based; settings: A549, 48 h
MCF7 = assay: Cytotoxicity against human MCF7 cells assessed as reduction in cell viability after 48 hrs by MTT assay; assay type: functional, cell-based; settings: MCF7, 48 h
DU-145 = assay: Cytotoxicity against human DU145 cells assessed as reduction in cell viability after 48 hrs by MTT assay; assay type: functional, cell-based; settings: DU-145, 48 h
HEK293 = assay: Cytotoxicity against human HEK293 cells assessed as reduction in cell viability after 48 hrs by MTT assay; assay type: cell-based; settings: HEK293, 48 h
Spodoptera litura [1] = assay: Antifeedant activity in Spodoptera litura third-instar larvae assessed as increase in feeding deterrence by measuring antifeedant index at 5 ug/cm2 after 24 hrs by leaf disk method; assay type: functional
Spodoptera litura [2] = assay: Antifeedant activity in Spodoptera litura third-instar larvae assessed as increase in feeding deterrence after 24 hrs by leaf disk method; assay type: functional
Spodoptera litura [3] = assay: Insecticidal activity in Spodoptera litura third-instar larvae assessed as larval mortality at 5 ug/cm2 after 24 hrs by leaf disk method relative to control; assay type: functional; settings: foliar
Spodoptera litura [4] = assay: Antifeedant activity in Spodoptera litura third-instar larvae assessed as larval duration time after 24 hrs by leaf disk method (reference value: 10.1 +/- 0.1 day); assay type: functional
Spodoptera litura [5] = assay: Antifeedant activity in Spodoptera litura assessed as pupal weight after 24 hrs by leaf disk method (reference value: 0.245 +/- 0.02 g); assay type: functional
Spodoptera litura [6] = assay: Antifeedant activity in Spodoptera litura assessed as pupal mortality after 24 hrs by leaf disk method (reference value: 0%); assay type: functional
Spodoptera litura [7] = assay: Toxicity in Spodoptera litura third-instar larvae assessed as increase in larval mortality after 24 hrs by leaf disk method; assay type: organism-based; settings: in vivo
Spodoptera litura [8] = assay: Antifeedant activity in Spodoptera litura third-instar larvae assessed as increase in feeding deterrence by measuring antifeedant index at 2.8 ug/cm2 after 24 hrs by leaf disk method; assay type: functional
Spodoptera litura [9] = assay: Insecticidal activity in Spodoptera litura third-instar larvae assessed as increase in larval mortality at 2.8 ug/cm2 after 24 hrs by leaf disk method relative to control; assay type: functional; settings: foliar

## CC(=O)O[C@H]1[C@H](O[C@H]2CC[C@]34C[C@]35CC[C@]3(C)[C@@H]([C@@]6(C)CC[C@@H](C(C)(C)O)O6)[C@@H](O)C[C@@]3(C)[C@@H]5C[C@H](O)[C@H]4C2(C)C)OC[C@@H](O)[C@@H]1O
HeLa
  IC50: 9.71 µM
A549
  IC50: 2.24 µM
MCF7
  IC50: 2.93 µM
DU-145
  IC50: 11.3 µM
HEK293
  IC50: 121 µM
Spodoptera litura [1]
  Activity_index: 64.1
Spodoptera litura [2]
  ED50: 1.689 microg/cm2
Spodoptera litura [3]
  mortality at 5 µg/cm2: 19.3%
Spodoptera litura [4]
  Time: 13.4 days
Spodoptera litura [5]
  Activity: 0.219 g
Spodoptera litura [6]
  mortality: 90.1%

## CC1(C)C[C@@H](O)[C@]2(C)CC[C@]3(C)C(=CC[C@@H]4[C@@]5(C)CCC(=O)[C@](C)(CO)[C@@H]5CC[C@]43C)[C@@H]2C1
HeLa
  IC50: 18.6 µM
A549
  IC50: 21.2 µM
MCF7
  IC50: 28.7 µM
DU-145
  IC50: 26 µM
HEK293
  IC50: 95.6 µM
Spodoptera litura [1]
  Activity_index: 21.8
Spodoptera litura [3]
  mortality at 5 µg/cm2: 0%
Spodoptera litura [4]
  Time: 11.1 days
Spodoptera litura [5]
  Activity: 0.249 g
Spodoptera litura [6]
  mortality: 11.2%

## C[C@@H]1C[C@H]([C@H](O)C(C)(C)O)O[C@H]2O[C@H](O)[C@@]3(C)[C@@H]4CC[C@H]5C(C)(C)[C@@H](O)CC[C@@]56C[C@@]46CC[C@]3(C)[C@H]21
HeLa
  IC50: 63.8 µM
A549
  IC50: 51.1 µM
MCF7
  IC50: 58.2 µM
DU-145
  IC50: 62.1 µM
HEK293
  IC50: 123 µM
Spodoptera litura [1]
  Activity_index: 91.8
Spodoptera litura [2]
  ED50: 0.59 microg/cm2
Spodoptera litura [3]
  mortality at 5 µg/cm2: 86.7%
Spodoptera litura [7]
  LD50: 0.84 microg/cm2

## C/C=C(\C)C(=O)O[C@H]1C[C@@H](OC(C)=O)[C@@]2(C(=O)OC)CO[C@H]3[C@@H](O)[C@@](C)([C@]45O[C@@]4(C)[C@H]4C[C@@H]5O[C@@H]5OC=C[C@@]54O)[C@H]4[C@]1(CO[C@]4(O)C(=O)OC)[C@@H]32 [AZADIRACTIN]
Spodoptera litura [8]
  Activity_index: 99.1
Spodoptera litura [2]
  ED50: 1.8 microg/cm2
Spodoptera litura [9]
  mortality at 2.8 µg/cm2: 100%
Spodoptera litura [7]
  LD50: 0.84 microg/cm2

## COc1cccc2c1C(=O)c1c(O)c3c(c(O)c1C2=O)C[C@@](O)(C(=O)CO)C[C@@H]3O[C@H]1C[C@H](N)[C@H](O)[C@H](C)O1 [DOXORUBICIN]
HeLa
  IC50: 1.09 µM
A549
  IC50: 1.95 µM
DU-145
  IC50: 1.62 µM

## C[C@@H]1C[C@H]([C@H](O)C(C)(C)O)O[C@H]2O[C@H](O)[C@@]3(C)[C@@H]4CC[C@H]5C(C)(C)C(=O)CC[C@@]56C[C@@]46CC[C@]3(C)[C@H]21
HeLa
  IC50: 55.3 µM
A549
  IC50: 36.7 µM
MCF7
  IC50: 38.9 µM
DU-145
  IC50: 53.7 µM
HEK293
  IC50: 167 µM
Spodoptera litura [1]
  Activity_index: 56.4
Spodoptera litura [2]
  ED50: 1.195 microg/cm2
Spodoptera litura [3]
  mortality at 5 µg/cm2: 11.5%
Spodoptera litura [4]
  Time: 12.6 days
Spodoptera litura [5]
  Activity: 0.221 g
Spodoptera litura [6]
  mortality: 88.5%

## C[C@@H]1C[C@H]([C@H](O)C(C)(C)O)O[C@H]2OC(=O)[C@@]3(C)[C@@H]4CC[C@H]5C(C)(C)C(=O)CC[C@@]56C[C@@]46CC[C@]3(C)[C@H]21
HeLa
  IC50: 17.8 µM
A549
  IC50: 16.3 µM
MCF7
  IC50: 24.8 µM
DU-145
  IC50: 22.4 µM
HEK293
  IC50: 79.3 µM
Spodoptera litura [1]
  Activity_index: 93.6
Spodoptera litura [2]
  ED50: 0.67 microg/cm2
Spodoptera litura [3]
  mortality at 5 µg/cm2: 94.6%
Spodoptera litura [7]
  LD50: 0.91 microg/cm2

## CC1(C)C[C@@H](O)[C@]2(C)CC[C@]3(C)C(=CC[C@@H]4[C@@]5(C)CC[C@H](O)[C@](C)(CO)[C@@H]5CC[C@]43C)[C@@H]2C1 [SOYASAPOGENOL B]
HeLa
  IC50: 3.49 µM
A549
  IC50: 2.1 µM
MCF7
  IC50: 2.33 µM
DU-145
  IC50: 10.9 µM
HEK293
  IC50: 124 µM
Spodoptera litura [1]
  Activity_index: 68.1
Spodoptera litura [2]
  ED50: 5.22 microg/cm2
Spodoptera litura [3]
  mortality at 5 µg/cm2: 11.6%
Spodoptera litura [4]
  Time: 12.1 days
Spodoptera litura [5]
  Activity: 0.251 g
Spodoptera litura [6]
  mortality: 96.7%

## C[C@@H]1C[C@H]([C@H](O)C(C)(C)O)O[C@H]2OC(=O)[C@@]3(C)[C@@H]4CC[C@H]5C(C)(C)C(=O)C=C[C@@]56C[C@@]46CC[C@]3(C)[C@H]21
HeLa
  IC50: 63.3 µM
A549
  IC50: 29.4 µM
MCF7
  IC50: 27.2 µM
DU-145
  IC50: 36.1 µM
HEK293
  IC50: 158 µM
Spodoptera litura [1]
  Activity_index: 61.2
Spodoptera litura [2]
  ED50: 12.239 microg/cm2
Spodoptera litura [3]
  mortality at 5 µg/cm2: 11.3%
Spodoptera litura [4]
  Time: 11.9 days
Spodoptera litura [5]
  Activity: 0.226 g
Spodoptera litura [6]
  mortality: 91.3%

## CC(C)(O)[C@@H]1CC[C@](C)([C@H]2[C@@H](O)C[C@@]3(C)[C@@H]4C[C@H](O)[C@H]5C(C)(C)[C@@H](O[C@@H]6OC[C@@H](O)[C@H](O)[C@H]6O)CC[C@@]56C[C@@]46CC[C@]23C)O1
HeLa
  IC50: 17.4 µM
A549
  IC50: 29 µM
MCF7
  IC50: 31.2 µM
DU-145
  IC50: 19.6 µM
HEK293
  IC50: 99.4 µM
Spodoptera litura [1]
  Activity_index: 70.1
Spodoptera litura [2]
  ED50: 15.05 microg/cm2
Spodoptera litura [3]
  mortality at 5 µg/cm2: 18.2%
Spodoptera litura [4]
  Time: 13.4 days
Spodoptera litura [5]
  Activity: 0.212 g
Spodoptera litura [6]
  mortality: 90.9%

## C[C@@H]1C[C@H]([C@H](O)C(C)(C)O)O[C@H]2O[C@H](O)[C@@]3(C)[C@@H]4CC[C@H]5C(C)(C)[C@@H](O[C@@H]6OC[C@@H](O)[C@H](O)[C@H]6O)CC[C@@]56C[C@@]46CC[C@]3(C)[C@H]21
HeLa
  IC50: 57 µM
A549
  IC50: 37.5 µM
MCF7
  IC50: 43.2 µM
DU-145
  IC50: 59.2 µM
HEK293
  IC50: 79.2 µM
Spodoptera litura [1]
  Activity_index: 59.3
Spodoptera litura [2]
  ED50: 3.61 microg/cm2
Spodoptera litura [3]
  mortality at 5 µg/cm2: 19.4%
Spodoptera litura [4]
  Time: 11.8 days
Spodoptera litura [5]
  Activity: 0.264 g
Spodoptera litura [6]
  mortality: 92.4%

## CC1(C)CC[C@]2(C)CC[C@]3(C)C(=CC[C@@H]4[C@@]5(C)CC[C@H](O)C(C)(C)[C@@H]5CC[C@]43C)[C@@H]2C1 [beta-AMYRIN]
HeLa
  IC50: 27.9 µM
A549
  IC50: 23.6 µM
MCF7
  IC50: 35.3 µM
DU-145
  IC50: 27.9 µM
HEK293
  IC50: 94.4 µM
Spodoptera litura [1]
  Activity_index: 59.4
Spodoptera litura [2]
  ED50: 28.69 microg/cm2
Spodoptera litura [3]
  mortality at 5 µg/cm2: 10.9%
Spodoptera litura [4]
  Time: 11.5 days
Spodoptera litura [5]
  Activity: 0.232 g
Spodoptera litura [6]
  mortality: 89.9%
